Source: patent publication US11524968B2, “Heterocyclic compound as a protein kinase inhibitor” (HK inno.N Corporation, priority 2017, dated 2022)

Target: JAK1 (Homo sapiens (Human), UniProt P23458)
Test: Analysis of JAK1 activity inhibition ability (ADP-Glo Kinase Assay)
Type: biochemical
Details: JAK1 enzyme, ADP-Glo luminescence, ATP 250 uM, IRS-itide substrate, 30° C. 40 minutes; read-out: IC50
Procedure, shortened: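 ADP-Glo luminescence read-out of ADP production, with IC50 taken as the concentration halving JAK1 activity relative to control. Enzyme was incubated 40 min at 30 °C with compound, IRS-itide (40 ng/mL) and ATP (250 uM), concentrations as prepared in pH 7.5 Tris-HCl/MgCl2/BSA/DTT buffer.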

JAK1, sequence (P23458 whole entry): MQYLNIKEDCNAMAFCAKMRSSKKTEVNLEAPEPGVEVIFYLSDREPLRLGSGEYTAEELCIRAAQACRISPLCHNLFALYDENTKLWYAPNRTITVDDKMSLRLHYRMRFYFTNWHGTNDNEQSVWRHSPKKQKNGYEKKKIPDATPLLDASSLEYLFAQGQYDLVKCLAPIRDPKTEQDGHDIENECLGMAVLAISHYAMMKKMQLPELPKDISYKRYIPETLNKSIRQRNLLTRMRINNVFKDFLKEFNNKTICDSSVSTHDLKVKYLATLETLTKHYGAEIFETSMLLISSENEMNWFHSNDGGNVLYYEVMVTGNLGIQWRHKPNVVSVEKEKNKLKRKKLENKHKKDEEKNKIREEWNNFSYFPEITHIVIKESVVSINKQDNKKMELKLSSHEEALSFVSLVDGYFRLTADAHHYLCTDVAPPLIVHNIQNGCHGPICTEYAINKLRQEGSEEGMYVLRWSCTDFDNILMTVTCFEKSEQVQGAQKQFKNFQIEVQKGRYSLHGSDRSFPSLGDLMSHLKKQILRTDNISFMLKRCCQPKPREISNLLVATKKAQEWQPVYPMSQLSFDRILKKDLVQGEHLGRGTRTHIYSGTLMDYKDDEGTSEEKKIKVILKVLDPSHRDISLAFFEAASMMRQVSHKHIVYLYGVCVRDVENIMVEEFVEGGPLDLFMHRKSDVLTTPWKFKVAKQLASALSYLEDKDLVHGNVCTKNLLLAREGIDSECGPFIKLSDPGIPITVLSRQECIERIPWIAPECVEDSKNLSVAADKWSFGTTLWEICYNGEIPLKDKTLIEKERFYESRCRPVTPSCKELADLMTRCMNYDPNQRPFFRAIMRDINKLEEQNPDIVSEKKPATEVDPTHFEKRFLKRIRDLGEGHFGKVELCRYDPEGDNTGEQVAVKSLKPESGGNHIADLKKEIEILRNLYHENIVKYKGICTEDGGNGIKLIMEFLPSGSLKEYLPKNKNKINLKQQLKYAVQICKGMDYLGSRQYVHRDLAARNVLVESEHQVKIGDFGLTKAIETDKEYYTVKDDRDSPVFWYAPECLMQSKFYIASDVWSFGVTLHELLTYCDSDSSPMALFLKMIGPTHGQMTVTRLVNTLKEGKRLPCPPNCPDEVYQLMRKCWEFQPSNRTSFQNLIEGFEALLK

| SMILES | IC50 [nM] |
| --- | --- |
| Cc1cc(NC(=O)CC#N)ccc1-c1cc(NC(=O)C2CC2)nc2[nH]ccc12 [Example 240, N-(4-(4-(2-cyanoacetamido)-2-methylphenyl)-1H-pyrrolo[2,3-b]pyridin-6-yl)cyclopropanecarboxamide] | > 200 |
| N#CC1(CC(=O)Nc2ccc(-c3cc(NC(=O)C4CC4)nc4[nH]ccc34)cc2)CC1 [Example 241, N-(4-(4-(2-(1-cyanocyclopropyl)acetamido)phenyl)-1H-pyrrolo[2,3-b]pyridin-6-yl)cyclopropanecarboxamide] | 20 to 200 |
| CCC(=O)NC1CC=C(c2cc(NC(=O)C3CC3)nc3[nH]ccc23)CC1 (stereo not drawn) [Example 242, N-(4-(4-propionamidocyclohex-1-en-1-yl)-1H-pyrrolo[2,3-b]pyridin-6-yl)cyclopropanecarboxamide] | > 200 |
| O=C(NC1CC=C(c2cc(NC(=O)C3CC3)nc3[nH]ccc23)CC1)c1ccccc1 (stereo not drawn) [Example 243, N-(4-(6-(cyclopropanecarboxamido)-1H-pyrrolo[2,3-b]pyridin-4-yl)cyclohex-3-en-1-yl)benzamide] | 20 to 200 |
| CC1CC1C(=O)NC1CC=C(c2cc(NC(=O)C3CC3)nc3[nH]ccc23)CC1 (stereo not drawn) [Example 244, N-(4-(6-(cyclopropanecarboxamido)-1H-pyrrolo[2,3-b]pyridin-4-yl)cyclohex-3-en-1-yl)-2-methylcyclopropane-1-carboxamide] | > 200 |
| O=C(Nc1cc(C2=CCC(NC(=O)C3CCCC3)CC2)c2cc[nH]c2n1)C1CC1 (stereo not drawn) [Example 245, N-(4-(6-(cyclopropanecarboxamido)-1H-pyrrolo[2,3-b]pyridin-4-yl)cyclohex-3-en-1-yl)cyclopentanecarboxamide] | 20 to 200 |
| O=C(Nc1cc(C2=CCC(NC(=O)C3CC3)CC2)c2cc[nH]c2n1)C1CC1 (stereo not drawn) [Example 246, N-(4-(6-(cyclopropanecarboxamido)-1H-pyrrolo[2,3-b]pyridin-4-yl)cyclohex-3-en-1-yl)cyclopropanecarboxamide] | 20 to 200 |
| N#CCC(=O)NC1CC=C(c2cc(NC(=O)C3CC3)nc3[nH]ccc23)CC1 (stereo not drawn) [Example 247, N-(4-(4-(2-cyanoacetamido)cyclohex-1-en-1-yl)-1H-pyrrolo[2,3-b]pyridin-6-yl)cyclopropanecarboxamide] | 20 to 200 |
| O=C(CCC(F)(F)F)NC1CC=C(c2cc(NC(=O)C3CC3)nc3[nH]ccc23)CC1 (stereo not drawn) [Example 248, N-(4-(4-(4,4,4-trifluorobutanamido)cyclohex-1-en-1-yl)-1H-pyrrolo[2,3-b]pyridin-6-yl)cyclopropanecarboxamide] | > 200 |
| O=C(Nc1cc(C2=CCN(C(=O)C3CCS(=O)(=O)CC3)CC2)c2cc[nH]c2n1)C1CC1 [Example 249, N-(4-(1-(1,1-dioxidotetrahydro-2H-thiopyran-4-carbonyl)-1,2,3,6-tetrahydropyridin-4-yl)-1H-pyrrolo[2,3-b]pyridin-6-yl)cyclopropanecarboxamide] | 20 to 200 |
| N#CCC(=O)N1CC=C(c2cc(NC(=O)C3CC3)nc3[nH]ccc23)CC1 [Example 250, N-(4-(1-(2-cyanoacetyl)-1,2,3,6-tetrahydropyridin-4-yl)-1H-pyrrolo[2,3-b]pyridin-6-yl)cyclopropanecarboxamide] | < 20 |
| N#CCCC(=O)N1C2C=C(c3cc(NC(=O)C4CC4)nc4[nH]ccc34)CC1CC2 (stereo not drawn) [Example 255, N-(4-(8-(3-cyanopropanoyl)-8-azabicyclo[3.2.1]oct-2-en-3-yl)-1H-pyrrolo[2,3-b]pyridin-6-yl)cyclopropanecarboxamide] | < 20 |
| O=C(Nc1cc(C2=CC3CCC(C2)N3C(=O)C2CC2)c2cc[nH]c2n1)C1CC1 (stereo not drawn) [Example 256, N-(4-(8-(cyclopropanecarbonyl)-8-azabicyclo[3.2.1]oct-2-en-3-yl)-1H-pyrrolo[2,3-b]pyridin-6-yl)cyclopropanecarboxamide] | < 20 |
| N#CCC(=O)N1C2C=C(c3cc(NC(=O)C4CC4)nc4[nH]ccc34)CC1CC2 (stereo not drawn) [Example 257, N-(4-(8-(2-cyanoacetyl)-8-azabicyclo[3.2.1]oct-2-en-3-yl)-1H-pyrrolo[2,3-b]pyridin-6-yl)cyclopropanecarboxamide] | < 20 |
| O=C(Nc1cc(C2=CC3CCC(C2)N3C(=O)CCC(F)(F)F)c2cc[nH]c2n1)C1CC1 (stereo not drawn) [Example 258, N-(4-(8-(4,4,4-trifluorobutanoyl)-8-azabicyclo[3.2.1]oct-2-en-3-yl)-1H-pyrrolo[2,3-b]pyridin-6-yl)cyclopropanecarboxamide] | < 20 |
| O=C(Nc1cc(C2=CC3CCC(C2)N3C(=O)CC(F)(F)F)c2cc[nH]c2n1)C1CC1 (stereo not drawn) [Example 261, N-(4-(8-(3,3,3-trifluoropropanoyl)-8-azabicyclo[3.2.1]oct-2-en-3-yl)-1H-pyrrolo[2,3-b]pyridin-6-yl)cyclopropanecarboxamide] | 20 to 200 |
| N#CCC(=O)N1[C@@H]2CC[C@H]1C=C(c1cc(NC(=O)C3CC3)nc3[nH]ccc13)C2 [Example 262, N-(4-((1S,5R)-8-(2-cyanoacetyl)-8-azabicyclo[3.2.1]oct-2-en-3-yl)-1H-pyrrolo[2,3-b]pyridin-6-yl)cyclopropanecarboxamide] | 20 to 200 |

Continued, values first:

| IC50 [nM] | SMILES |
| --- | --- |
| 20 to 200 | O=C(Nc1cc(C2=CCN(C(=O)CN3CCS(=O)(=O)CC3)CC2)c2cc[nH]c2n1)C1CC1 [Example 251, N-(4-(1-(2-(1,1-dioxidothiomorpholino)acetyl)-1,2,3,6-tetrahydropyridin-4-yl)-1H-pyrrolo[2,3-b]pyridin-6-yl)cyclopropanecarboxamide] |
| < 20 | N#CCCC(=O)N1CC=C(c2cc(NC(=O)C3CC3)nc3[nH]ccc23)CC1 [Example 252, N-(4-(1-(3-cyanopropanoyl)-1,2,3,6-tetrahydropyridin-4-yl)-1H-pyrrolo[2,3-b]pyridin-6-yl)cyclopropanecarboxamide] |
| 20 to 200 | O=C(Nc1cc(C2=CCN(C(=O)CC(F)(F)F)CC2)c2cc[nH]c2n1)C1CC1 [Example 253, N-(4-(1-(3,3,3-trifluoropropanoyl)-1,2,3,6-tetrahydropyridin-4-yl)-1H-pyrrolo[2,3-b]pyridin-6-yl)cyclopropanecarboxamide] |
| 20 to 200 | O=C(Nc1cc(C2=CCN(C(=O)CCC(F)(F)F)CC2)c2cc[nH]c2n1)C1CC1 [Example 254, N-(4-(1-(4,4,4-trifluorobutanoyl)-1,2,3,6-tetrahydropyridin-4-yl)-1H-pyrrolo[2,3-b]pyridin-6-yl)cyclopropanecarboxamide] |
| > 200 | N#CC1(C(=O)N2CC=C(c3cc(NC(=O)C4CC4)nc4[nH]ccc34)CC2)CC1 [Example 259, N-(4-(1-(1-cyanocyclopropane-1-carbonyl)-1,2,3,6-tetrahydropyridin-4-yl)-1H-pyrrolo[2,3-b]pyridin-6-yl)cyclopropanecarboxamide] |
| 20 to 200 | O=C(Nc1cc(C2=CCN(C(=O)C3CC(F)(F)C3)CC2)c2cc[nH]c2n1)C1CC1 [Example 260, N-(4-(1-(3,3-difluorocyclobutane-1-carbonyl)-1,2,3,6-tetrahydropyridin-4-yl)-1H-pyrrolo[2,3-b]pyridin-6-yl)cyclopropanecarboxamide] |
| < 20 | O=C(Nc1cc(C2=CCN(C(=O)C3CC3(F)F)CC2)c2cc[nH]c2n1)C1CC1 (stereo not drawn) [Example 263, N-(4-(1-(2,2-difluorocyclopropane-1-carbonyl)-1,2,3,6-tetrahydropyridin-4-yl)-1H-pyrrolo[2,3-b]pyridin-6-yl)cyclopropanecarboxamide] |
| 20 to 200 | O=C(Nc1cc(C2=CCN(C(=O)C3CC3)CC2)c2cc[nH]c2n1)C1CC1 [Example 264, N-(4-(1-(cyclopropanecarbonyl)-1,2,3,6-tetrahydropyridin-4-yl)-1H-pyrrolo[2,3-b]pyridin-6-yl)cyclopropanecarboxamide] |
| < 20 | N#CCCCC(=O)N1CC=C(c2cc(NC(=O)C3CC3)nc3[nH]ccc23)CC1 [Example 265, N-(4-(1-(4-cyanobutanoyl)-1,2,3,6-tetrahydropyridin-4-yl)-1H-pyrrolo[2,3-b]pyridin-6-yl)cyclopropanecarboxamide] |
| 20 to 200 | C=CC(=O)N1CC=C(c2cc(NC(=O)C3CC3)nc3[nH]ccc23)CC1 [Example 266, N-(4-(1-acryloyl-1,2,3,6-tetrahydropyridin-4-yl)-1H-pyrrolo[2,3-b]pyridin-6-yl)cyclopropanecarboxamide] |
| 20 to 200 | N#CC1(CC(=O)N2CC=C(c3cc(NC(=O)C4CC4)nc4[nH]ccc34)CC2)CC1 [Example 268, N-(4-(1-(2-(1-cyanocyclopropyl)acetyl)-1,2,3,6-tetrahydropyridin-4-yl)-1H-pyrrolo[2,3-b]pyridin-6-yl)cyclopropanecarboxamide] |
| < 20 | CC(C#N)C(=O)N1CC=C(c2cc(NC(=O)C3CC3)nc3[nH]ccc23)CC1 (stereo not drawn) [Example 269, N-(4-(1-(2-cyanopropanoyl)-1,2,3,6-tetrahydropyridin-4-yl)-1H-pyrrolo[2,3-b]pyridin-6-yl)cyclopropanecarboxamide] |
| > 200 | C=CCC(=O)N1CC=C(c2cc(NC(=O)C3CC3)nc3[nH]ccc23)CC1 [Example 270, N-(4-(1-(but-3-enoyl)-1,2,3,6-tetrahydropyridin-4-yl)-1H-pyrrolo[2,3-b]pyridin-6-yl)cyclopropanecarboxamide] |
| 20 to 200 | CCC(C#N)C(=O)N1CC=C(c2cc(NC(=O)C3CC3)nc3[nH]ccc23)CC1 (stereo not drawn) [Example 271, N-(4-(1-(2-cyanobutanoyl)-1,2,3,6-tetrahydropyridin-4-yl)-1H-pyrrolo[2,3-b]pyridin-6-yl)cyclopropanecarboxamide] |
| 20 to 200 | O=C(Nc1cc(C2=CCN(C(=O)C(F)(F)F)CC2)c2cc[nH]c2n1)C1CC1 [Example 272, N-(4-(1-(2,2,2-trifluoroacetyl)-1,2,3,6-tetrahydropyridin-4-yl)-1H-pyrrolo[2,3-b]pyridin-6-yl)cyclopropanecarboxamide] |
| 20 to 200 | CC1CC1C(=O)N1CC=C(c2cc(NC(=O)C3CC3)nc3[nH]ccc23)CC1 (stereo not drawn) [Example 273, N-(4-(1-(2-methylcyclopropane-1-carbonyl)-1,2,3,6-tetrahydropyridin-4-yl)-1H-pyrrolo[2,3-b]pyridin-6-yl)cyclopropanecarboxamide] |
